Measured values as given in PubChem BioAssay (NCI).
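Dose response: 5 concentrations. Exposure: 48 h. Format: 96-well plates. Endpoint: linear interpolation; highest concentration if not reached. TGI is the concentration that stops growth completely.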 Where a SMILES comes first, the peptide text is derived from it. [ ]: non-standard residue; d: D form. The star is where a group is joined. Phe(4-NO2) = N[CH](Cc1ccc([N+](=O)[O-])cc1)C(=O)O; Boc = CC(C)(C)OC(=O)*; OtBu = CC(C)(C)O*

Assays:
Assay in all cases: NCI tumour cell line growth inhibition, 48 h
IGROV1 ovarian = system: IGROV1 ovarian
COLO 205 colon = system: COLO 205 colon
HOP-62 NSCLC = system: HOP-62 NSCLC
BT-549 breast = system: BT-549 breast
RXF 393 renal = system: RXF 393 renal
OVCAR-4 ovarian = system: OVCAR-4 ovarian
SK-OV-3 ovarian = system: SK-OV-3 ovarian
EKVX NSCLC = system: EKVX NSCLC
NCI-H23 lung = system: NCI-H23 lung
SN12C renal = system: SN12C renal

SMILES	TGI (IGROV1 ovarian) [µM]	TGI (COLO 205 colon) [µM]	TGI (HOP-62 NSCLC) [µM]	TGI (BT-549 breast) [µM]	TGI (RXF 393 renal) [µM]	TGI (OVCAR-4 ovarian) [µM]	TGI (SK-OV-3 ovarian) [µM]	TGI (EKVX NSCLC) [µM]	TGI (NCI-H23 lung) [µM]	TGI (SN12C renal) [µM]
O=C(NCCCCl)c1c(O)c2ccccc2[nH]c1=O	> 100	> 100	> 100	> 100	> 71.5	> 100	> 100	> 100	> 100	> 100
COC1=CC2(C=CC1=O)CCN=c1c(O)c3c(c(O)c12)=NC=N3 (stereo not given)	> 100	> 100	> 100	> 100	> 100	> 100	> 100	> 100	> 100	> 100
Cc1nn(C(=O)c2ccccc2O)c2c1C(c1ccc(O)cc1)SC(N)=N2 (stereo not given)	> 7.17	> 10	> 10	> 10	> 10	> 8.37	> 10	> 10	> 10	> 10
COc1cc(O)c2c(c1)C(O)C(O)CC1OC1C(=O)/C=C/CC(C)OC2=O (stereo not given)	20.1	16.1	44.3	6.1	5.6	> 52.9	> 64.9	35.8	12	11.8
COc1ccc(-c2c(C(C)=O)c(C)n(C3OC(CO)C(O)C(O)C3O)c(=S)c2C#N)cc1 (stereo not given)	> 100	> 100	> 100	> 100	> 100	> 100	> 100	> 100	> 100	> 100
COC(=O)CNC(=O)/C=C/[C@H](O[Si](C)(C)C(C)(C)C)[C@H](/C=C/C(=O)NCC(=O)OC)O[Si](C)(C)C(C)(C)C	> 25	> 25	> 25	> 25	> 25	> 25	> 25	> 25	> 25	> 25
O=C(O)c1ccc(Nc2cnc3ccc(C(F)(F)F)cc3n2)cc1	28.5	32.5	38.9	60.1	35.3	40.7	> 100	> 100	33.5	90.2
c1csc(-c2ccc(-c3ccc(-c4cccs4)s3)s2)c1	> 100	> 100	> 100	> 100	> 100	> 100	> 100	> 100	> 100	> 100
N#Cc1nnc2c3c(-c4ccc(Cl)cc4)c(C#N)c(=O)[nH]c3nn2c1N	9.65	28.4	21.8	10.3	14.9	51	18.2	30.9	24	6.37
O=C1N2CCc3c([nH]c4ccccc34)C23CC2CCCC12S3 (stereo not given)	> 50	> 50	> 50	> 50	> 50	> 50	> 50	> 50	> 50	> 50
COC(=O)C(Cc1ccc([N+](=O)[O-])cc1)NC(=O)C(CC(=O)OC(C)(C)C)NC(=O)OC(C)(C)C (stereo not given) (Boc-Asp(OtBu)-[Phe(4-NO2)]-OMe; configuration not given here)	> 100	> 100	> 100	> 100	> 100	> 100	> 100	> 100	> 100	> 100
COCCCN1C(=O)C2c3[nH]c4ccccc4c3C3CCC(C(C)(C)C)CC3C2C1=O (stereo not given)	> 100	> 10	52.2	> 100	51.3	> 100	> 100	> 100	82.6	50
CC(C)[Si]1(C(C)C)OCC2OC(n3cnc4c(N)ncnc43)C(N)C2O[Si](C(C)C)(C(C)C)O1 (stereo not given)	43.3	23.9	> 49.5	14.3	27.1	> 100	> 53.7	> 66.9	26.5	27.9
Clc1ncc(C(Cl)(Cl)Cl)nc1-c1ccccc1	8.05	4.11	6.08	8.81	3.3	17	24.3	6.02	6.07	8.57
O=C1O/C(=C\c2ccc(O)cc2)C(c2ccc(O)c(Cl)c2)=C1Br	25.7	33.4	35.3	23.8	59.8	38.4	37.2	40.7	59.2	46.4
CN(C)CCn1c(=O)c2ccc(NCCNCCO)c3c(=O)c4cc(O)ccc4n(c1=O)c23	7.47	4.6	4.16	32.4	3.73	3.55	46.7	14.3	3.64	5.15
